Reference: patent publication US7868013B2, “Cycloalkyl substituted pyrimidinediamine compounds and their uses” (Rigel Pharmaceuticals, Inc., priority 2004, dated 2011)
Where a name gives a salt, the structure may show the parent alone. Read-outs that look alike come from different tables or passages of the source.

Legend:
Format in all cases: cell-based
A549 (lung carcinoma) = experiment: In vitro antiproliferation assay, A549 cells (TABLE 1 6 point assay; TABLE 2)
Description: (§1) Certain compounds were tested against other cell types for their ability to inhibit proliferation in standard antiproliferation assays.

[1] = tested on: MiaPaCa-2 (pancreatic carcinoma); experiment: In vitro antiproliferation assay, MiaPaCa-2 cells; conditions: Homo sapiens, MIA PaCa-2
Description: (§2) Cis racemic Compound 15, (1S,2R) enantiomeric Compound 15a and […] enantiomeric Compound 15b were also tested against DU145 (prostate carcinoma), HCT116 (colorectal carcinoma) and MiaPaCa-2 (pancreatic carcinoma) cell lines.
as §1

[2] = tested on: DU145 (prostate carcinoma); experiment: In vitro antiproliferation assay, DU145 cells; conditions: Homo sapiens, DU-145
Description: as §2, §1

[3] = tested on: HCT116 (colorectal carcinoma); experiment: In vitro antiproliferation assay, HCT116 cells; conditions: Homo sapiens, HCT-116; HCT116 (colorectal carcinoma) cell line
Description: as §2

[4] = tested on: H1299 (non-small cell lung carcinoma); experiment: In vitro antiproliferation assay, H1299 cells (TABLE 1 6 point assay; TABLE 2)
Description: as §1

[5] = tested on: U937 (histiocytic lymphoma); experiment: In vitro antiproliferation assay, U937 cells; conditions: Homo sapiens, U-937
Description: as §1

[6] = tested on: SW620 (colorectal adenocarcinoma); experiment: In vitro antiproliferation assay, SW620 cells; conditions: Homo sapiens, SW-620
Description: as §1

[7] = tested on: COLO 205 (colorectal adenocarcinoma); experiment: In vitro antiproliferation assay, COLO 205 cells; conditions: Homo sapiens, COLO 205; Colo205
Description: as §1

[8] = tested on: L1210 (mouse lymphocytic leukemia); experiment: In vitro antiproliferation assay, L1210 cells; conditions: Mus musculus
Description: as §1

[9] = tested on: MOLT3 (T lymphoblast acute lymphoblastic leukemia); experiment: In vitro antiproliferation assay, MOLT3 cells; conditions: Homo sapiens, MOLT-3
Description: as §1

[10] = tested on: HL160 (promyeloblast promyelocytic leukemia); experiment: In vitro antiproliferation assay, HL160 cells
Description: as §1

[11] = tested on: MOLT4 (T lymphoblast acute lymphoblastic leukemia); experiment: In vitro antiproliferation assay, MOLT4 cells; conditions: Homo sapiens, MOLT-4
Description: as §1

[12] = tested on: K562 (bone marrow chronic myelogenous leukemia); experiment: In vitro antiproliferation assay, K562 cells; conditions: Homo sapiens
Description: as §1

[13] = tested on: THP-1 (monocyte acute monocytic leukemia); experiment: In vitro antiproliferation assay, THP-1 cells; conditions: Homo sapiens
Description: as §1

H7299 = experiment: In vitro antiproliferation assay, H7299 cells
Description: as §1

[14] = tested on: HELA (cervical adenocarcinoma); experiment: In vitro antiproliferation assay, HELA cells; conditions: Homo sapiens, HeLa
Description: as §1

U2OS (bone osteosarcoma) = experiment: In vitro antiproliferation assay, U2OS cells; conditions: Homo sapiens, U2OS; U20S
Description: as §1

[15] = tested on: PC3 (prostate adenocarcinoma); experiment: In vitro antiproliferation assay, PC3 cells; conditions: Homo sapiens, PC-3
Description: as §1

Aurora kinase-B = target: T1, Aurora kinase-B (Homo sapiens, UniProt Q96GD4); experiment: Functional cellular assay of Aurora kinase-B: phosphorylation of histone H3 in A549 cells
T1 construct: endogenous in cells; host or cells: A549 cells
T1 sequence (Q96GD4 whole entry): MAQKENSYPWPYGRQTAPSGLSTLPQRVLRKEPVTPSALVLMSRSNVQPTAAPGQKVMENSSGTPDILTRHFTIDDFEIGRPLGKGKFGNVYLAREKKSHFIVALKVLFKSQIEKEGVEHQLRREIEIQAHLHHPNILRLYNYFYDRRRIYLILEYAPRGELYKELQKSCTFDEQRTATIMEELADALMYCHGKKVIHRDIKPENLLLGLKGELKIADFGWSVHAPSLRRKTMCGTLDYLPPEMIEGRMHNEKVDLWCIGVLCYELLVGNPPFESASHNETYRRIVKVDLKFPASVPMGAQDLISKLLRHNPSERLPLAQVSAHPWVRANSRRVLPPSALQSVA
Description: Enantiomers E1 and E2 (Compounds 60a and 60b, respectively) were tested for their ability to inhibit Aurora kinase-B in a functional cellular assay involving phosphorylation of its substrate, histone H3. For the assay, A549 cells were seeded into the wells of a microtiter tray (5000 cells/well in 100 μl F12K media) late in the afternoon on Day 1. The cells were grown overnight (37° C., 5% CO2) On Day 2, 50 μl nocodazole (1 μM in media) was added to each well, giving a final concentration of 333 nM. Cells were grown for an additional 18 hrs under the same conditions.
On Day 3, 50 μl aliguots of varying concentrations of test compound were added to the wells Test compounds were prepared by 2-fold serial dilution of a […] stock (in DMSO). The diluted compounds in DMSO were then further diluted 1:50 with media to yield a final solution containing 4× test compound, 98% media, 2% DMSO. After incubation, the media/test compound was washed and the cells fixed with 2% paraformaldehyde (in Dulbecco's phosphate buffered saline “DPBS”; 25 μl per well; […] incubation). […] The cells were then stained with a secondary antibody labeled with a fluorescent dye (secondary antibody donkey anti-mouse AlexFluor 488 (Invitrogen Molecular Probes; 1:2000) and DAPI (1:15,000 of 1 mg/ml stock) for 1 hr at room temperature, washed three times with DPBS (200 μl/well) and stored under DPBS (100 μl/well) at 4° C. until ready for analysis.
A Zeiss Axiovert S100 inverted fluorescent microscope with a Plan-NEOFLUAR 10× objective, a Hamamatsu Lightningcure 200 Mercury-Xenon light source and an Omega Optical XF57 quad filter was used for all data collection. […] Images were captured and analyzed in 12-bit format using segmentation and morphological routines contained in the Image Pro software package. Identified nuclei were counted and pixel data for each cell along with experimental conditions was stored in a database using MySQL 4.0.14. […]
For phospho-histone H3 analysis the data is converted to Facs files and analysed using FlowJo. […]

[16] = tested on: a variety of tumor cell types; experiment: In vitro antiproliferation assays against a variety of tumor cell types (stereoisomer comparison)
Description: Moreover, it has been discovered that the enantiomer corresponding to the (1R,2R,3S,4S) diastereomer of structural formula (IVa) is largely responsible for the potency of the exo-exo cis racemate.
as §1

[17] = Homo sapiens, A549, 6 point assay, A549 cells, read-out: IC50, A549 cells
[18] = MiaPaCa-2 (pancreatic carcinoma) cell line, read-out: IC50
[19] = DU145 (prostate carcinoma) cell line, read-out: IC50
[20] = Homo sapiens, NCI-H1299, 6 point assay, H1299 cells, read-out: IC50, H1299 cells
[21] = 6 point assay, A549 cells, read-out: IC50, A549 cells
[22] = Homo sapiens, A549, A549, read-out: In Vitro IC50
[23] = Miapaca2, read-out: In Vitro IC50
[24] = 6 point assay, H1299 cells, read-out: IC50, H1299 cells
[25] = Homo sapiens, NCI-H1299, H1299, read-out: In Vitro IC50

Cc1cc(Nc2ncc(F)c(NC3CCCC3C(N)=O)n2)ccc1N1CCN(C)CC1 (racemic) [Compound 15, Racemic-cis-N4-(2-Aminocarbonylcyclopent-1-yl)-5-fluoro-N2-[4-(4-methylpiperazin-1-yl)-3-methylphenyl]-2,4-pyrimidinediamine]
IC50 (A549 (lung carcinoma); [17]): 100 to 1000 nM
IC50 [1, 18]: < 1000 nM
IC50 [2, 19]: < 1000 nM
IC50 [3]: < 1000 nM
IC50 [4, 20]: 100 to 1000 nM

Cc1cc(Nc2ncc(F)c(N[C@H]3CCC[C@H]3C(N)=O)n2)ccc1N1CCN(C)CC1 (stereo in doubt) [Compound 15a, (1S,2R)—N4-(2-Aminocarbonylcyclopent-1-yl)-5-fluoro-N2-[4-(4-methylpiperazin-1-yl)-3-methylphenyl]-2,4-pyrimidinediamine]
IC50 (A549 (lung carcinoma); [17]): 100 to 1000 nM
IC50 [1, 18]: < 1000 nM
IC50 [3]: < 1000 nM
IC50 [4, 20]: 100 to 1000 nM

Cc1cc(Nc2ncc(F)c(N[C@@H]3CCC[C@@H]3C(N)=O)n2)ccc1N1CCN(C)CC1 [compound 222, (1R,2S)-N4-(2-Aminocarbonylcyclopent-1-yl)-5-fluoro-N2-[3-methyl-4-(4-methylpiperazin-1-yl)phenyl]-2,4-pyrimidinediamine Bis Hydrogen Chloride Salt]
IC50 (A549 (lung carcinoma); [21]): 100 to 1000 nM
IC50 (A549 (lung carcinoma); [22]): ≤ 1000 nM
IC50 [1, 23]: ≤ 1000 nM
IC50 [5]: ≤ 1000 nM
IC50 [6]: ≤ 1000 nM
IC50 [7]: ≤ 1000 nM
IC50 [8]: ≤ 1000 nM
IC50 [9]: ≤ 1000 nM
IC50 [10]: ≤ 1000 nM
IC50 [11]: ≤ 1000 nM
IC50 [12]: > 1000 nM
IC50 [13]: ≤ 1000 nM
IC50 [4, 24]: 100 to 1000 nM
IC50 [4, 25]: ≤ 1000 nM

Cc1cc(Nc2ncc(F)c(NC3C4C=CC(C4)C3C(N)=O)n2)ccc1N1CCN(C)CC1 (racemic) [Compound 60r2, Racemic-(2-endo,3-endo)-N4-(3-aminocarbonylbicyclo[2.2.1]hept-5-en-2-yl)-5-fluoro-N2-[3-methyl-4-(4-methylpiperazin-1-yl)phenyl]-2,4-pyrimidinediamine]
IC50 (A549 (lung carcinoma); [21]): 100 to 1000 nM
IC50 (A549 (lung carcinoma); A549, read-out: In Vitro IC50): ≤ 1000 nM
IC50 (H7299): ≤ 1000 nM
IC50 [4, 24]: 100 to 1000 nM

Cc1cc(Nc2ncc(F)c(N[C@@H]3CCC[C@@H]3C(N)=O)n2)ccc1N1CCN(C)CC1 (stereo in doubt) [Compound 15b, (1R,2S)—N4-(2-Aminocarbonylcyclopent-1-yl)-5-fluoro-N2-[4-(4-methylpiperazin-1-yl)-3-methylphenyl]-2,4-pyrimidinediamine]
IC50 (A549 (lung carcinoma); [17]): 1000 to 10000 nM
IC50 [1, 18]: < 5000 nM
IC50 [2, 19]: < 5000 nM
IC50 [3]: < 5000 nM
IC50 [4, 20]: 1000 to 10000 nM

Cc1cc(Nc2ncc(F)c(NC3C(C(N)=O)[C@H]4C=C[C@@H]3C4)n2)ccc1N1CCN(C)CC1 (stereo in doubt) [Compound 60b, (1S,2R,3S,4R)—N4-(3-Aminocarbonylbicyclo[2.2.1]hept-5-en-2-yl)-5-fluoro-N2-[3-methyl-4-(4-methylpiperazin-1-yl)phenyl]-2,4-pyrimidinediamine]
IC50 (A549 (lung carcinoma); [17]): 1000 to 10000 nM
IC50 (A549 (lung carcinoma); [22]): > 1000 nM
IC50 [1, 23]: > 1000 nM
IC50 [5]: > 1000 nM
IC50 ([2]; DU145, read-out: In Vitro IC50): ≤ 1000 nM
IC50 [6]: > 1000 nM
IC50 [7]: > 1000 nM
IC50 [8]: > 1000 nM
IC50 [9]: > 1000 nM
IC50 [14]: > 1000 nM
IC50 (U2OS (bone osteosarcoma)): ≤ 1000 nM
IC50 (H7299): > 1000 nM
IC50 [10]: > 1000 nM
IC50 [15]: > 1000 nM
IC50 [11]: > 1000 nM
IC50 [12]: > 1000 nM
IC50 (Aurora kinase-B; A549 cells, phospho-histone H3, read-out: IC50 of Aurora kinase-B inhibition): 2490 nM
IC50 [13]: ≤ 1000 nM
IC50 [4, 20]: 1000 to 10000 nM
IC50 [4, 25]: > 1000 nM

Cc1cc(Nc2ncc(F)c(NC3C4C=CC(C4)C3C(N)=O)n2)ccc1N1CCN(C)CC1 [(1R,2R,3S,4S) diastereomer, N4-(3-aminocarbonylbicyclo[2.2.1]hept-5-en-2-yl)-5-fluoro-N2-[3-methyl-4-(4-methylpiperazin-1-yl)phenyl]-2,4-pyrimidinediamine]
Potency relative to the endo-endo racemate ([16]; (1R,2R,3S,4S) diastereomer, more potent): 20-50 times
Potency relative to the (1S,2S,3R,4R) diastereomer ([16]; more potent): approximately 1000 fold
IC50s when tested as isolated stereoisomers ([16]; range in words, same cell lines): nanomolar range
Result in cell-based inhibition assays against Aurora kinase B compared to the (1S,2S,3R,4R) diastereomer (Aurora kinase-B; in words): similarly superior results

Cc1cc(Nc2ncc(F)c(NC3C4C=CC(C4)C3C(N)=O)n2)ccc1N1CCN(C)CC1 (racemic) [Compound 228, Racemic N4-(3-Aminocarbonylbicyclo[2.2.1]hept-5-en-2-yl)-5-fluoro-N2-[3-methyl-4-(4-methylpiperazin-1-yl)phenyl]-2,4-pyrimidinediamine Hydrogen Chloride Salt]
IC50 (A549 (lung carcinoma); [21]): ≤ 100 nM
IC50 (A549 (lung carcinoma); A549, read-out: In Vitro IC50): ≤ 1000 nM
IC50 (H7299): ≤ 1000 nM
IC50 [4, 24]: ≤ 100 nM
IC50 ([4]; H1299, read-out: In Vitro IC50): ≤ 1000 nM

Cc1cc(Nc2ncc(F)c(NC3CCCC3C(N)=O)n2)ccc1N1CCN(C)CC1 [trans (1R,2R) diastereomer, N4-(2-aminocarbonylcyclopent-1-yl)-5-fluoro-N2-[4-(4-methylpiperazin-1-yl)-3-methylphenyl]-2,4-pyrimidinediamine]
Inhibition of proliferation of a variety of tumor cell lines ([16]; in words): inhibit the proliferation
